Patent publication US8759318B2, “Phosphoramidate derivatives of guanosine nucleoside compounds for treatment of viral infections” (Inhibitex, Inc., priority 2009, dated 2014)

What was measured:
in vitro = details: human
[1] = system: HCV replicon (Genotype 1b); test: Luciferase genotype 1b replicon potency assay; details: Hepatitis C virus, GETYPE1B, read-out: IC50 μM, HCV genotype 1b luciferase replicon, Renilla luciferase reporter

| Compound | CC50 (in vitro) [nM] | IC50 [1] [µM] |
| --- | --- | --- |
| COc1nc(N)nc2c1ncn2C1O[C@H](CO[P@@](=O)(N[C@@H](C)C(=O)OCC(C)(C)C)Oc2cccc3ccccc23)[C@@H](O)[C@@]1(C)O (some centres unmarked) [Example 21] | 13000 | 0.043 |
| COc1nc(N)nc2c1ncn2C1O[C@H](COP(=O)(N[C@@H](C)C(=O)OC(C)C)Oc2cccc3ccccc23)[C@@H](O)[C@@]1(C)O (stereo partly drawn) [Example 23, (2S)-isopropyl 2-((((2R,3R,4R)-5-(2-amino-6-methoxy-9H-purin-9-yl)-3,4-dihydroxy-4-methyltetrahydrofuran-2-yl)methoxy)(naphthalen-1-yloxy)phosphorylamino)propanoate] | 100000 | 0.43 |
| COc1nc(N)nc2c1ncn2C1O[C@H](COP(=O)(N[C@@H](C)C(=O)OC2CCCC2)Oc2cccc3ccccc23)[C@@H](O)[C@@]1(C)O (stereo partly drawn) [Example 24, (2S)-cyclopentyl 2-((((2R,3R,4R)-5-(2-amino-6-methoxy-9H-purin-9-yl)-3,4-dihydroxy-4-methyltetrahydrofuran-2-yl)methoxy)(naphthalen-1-yloxy)phosphorylamino)propanoate] | 9000 | 0.02 |
| COc1nc(N)nc2c1ncn2C1O[C@H](COP(=O)(N[C@@H](C)C(=O)OC2CCCCC2)Oc2cccc3ccccc23)[C@@H](O)[C@@]1(C)O (stereo partly drawn) [Example 25, (2S)-cyclohexyl 2-((((2R,3R,4R)-5-(2-amino-6-methoxy-9H-purin-9-yl)-3,4-dihydroxy-4-methyltetrahydrofuran-2-yl)methoxy)(naphthalen-1-yloxy)phosphorylamino)propanoate] | 6000 | 0.014 |
| COc1nc(N)nc2c1ncn2C1O[C@H](COP(=O)(N[C@@H](C)C(=O)OC2CCOCC2)Oc2cccc3ccccc23)[C@@H](O)[C@@]1(C)O (stereo partly drawn) [Example 26, (2S)-tetrahydro-2H-pyran-4-yl 2-((((2R,3R,4R)-5-(2-amino-6-methoxy-9H-purin-9-yl)-3,4-dihydroxy-4-methyltetrahydrofuran-2-yl)methoxy)(naphthalen-1-yloxy)phosphorylamino)propanoate] | 130000 | 0.08 |
| COC(=O)[C@@H](C)c1ccc2cc(OP(=O)(N[C@@H](C)C(=O)OCc3ccc(F)cc3F)OC[C@H]3OC(n4cnc5c(OC)nc(N)nc54)[C@](C)(O)[C@@H]3O)ccc2c1 (stereo partly drawn) [Example 27, (2S)-2,4-difluorobenzyl 2-((((2R,3R,4R)-5-(2-amino-6-methoxy-9H-purin-9-yl)-3,4-dihydroxy-4-methyltetrahydrofuran-2-yl)methoxy)(6-((S)-1-methoxy-1-oxopropan-2-yl)naphthalen-2-yloxy)phosphorylamino)propanoate] | 28000 | 0.055 |
| COC(=O)[C@@H](C)c1ccc2cc(OP(=O)(N[C@@H](C)C(=O)OCC(C)(C)C)OC[C@H]3OC(n4cnc5c(OC)nc(N)nc54)[C@](C)(O)[C@@H]3O)ccc2c1 (stereo partly drawn) [Example 28, (2S)-methyl 2-(6-((((2R,3R,4R)-5-(2-amino-6-methoxy-9H-purin-9-yl)-3,4-dihydroxy-4-methyltetrahydrofuran-2-yl)methoxy)((S)-1-(neopentyloxy)-1-oxopropan-2-ylamino)phosphoryloxy)naphthalen-2-yl)propanoate] | 19000 | 0.023 |
| COC(=O)[C@@H](C)c1ccc2cc(OP(=O)(N[C@@H](C)C(=O)OC3CCOCC3)OC[C@H]3OC(n4cnc5c(OC)nc(N)nc54)[C@](C)(O)[C@@H]3O)ccc2c1 (stereo partly drawn) [Example 29, (2S)-methyl 2-(6-((((2R,3R,4R)-5-(2-amino-6-methoxy-9H-purin-9-yl)-3,4-dihydroxy-4-methyltetrahydrofuran-2-yl)methoxy)((S)-1-oxo-1-(tetrahydro-2H-pyran-4-yloxy)propan-2-ylamino)phosphoryloxy)naphthalen-2-yl)propanoate] | > 100000 | 0.11 |
| COc1nc(N)nc2c1ncn2C1O[C@H](COP(=O)(N[C@@H](C)C(=O)OCc2ccc(F)cc2F)Oc2cccc3ncccc23)[C@@H](O)[C@@]1(C)O (stereo partly drawn) [Example 30, (2S)-2,4-difluorobenzyl 2-((((2R,3R,4R)-5-(2-amino-6-methoxy-9H-purin-9-yl)-3,4-dihydroxy-4-methyltetrahydrofuran-2-yl)methoxy)(quinolin-5-yloxy)phosphorylamino)propanoate] | 110000 | 0.13 |
| COc1nc(N)nc2c1ncn2C1O[C@H](COP(=O)(N[C@@H](C)C(=O)OCC(C)(C)C)Oc2cccc3ncccc23)[C@@H](O)[C@@]1(C)O (stereo partly drawn) [Example 31, (2S)-neopentyl 2-((((2R,3R,4R)-5-(2-amino-6-methoxy-9H-purin-9-yl)-3,4-dihydroxy-4-methyltetrahydrofuran-2-yl)methoxy)(quinolin-5-yloxy)phosphorylamino)propanoate] | > 100000 | 0.19 |
| COc1nc(N)nc2c1ncn2C1O[C@H](COP(=O)(N[C@@H](C)C(=O)OC2CCOCC2)Oc2cccc3ncccc23)[C@@H](O)[C@@]1(C)O (stereo partly drawn) [Example 32, (2S)-tetrahydro-2H-pyran-4-yl 2-((((2R,3R,4R)-5-(2-amino-6-methoxy-9H-purin-9-yl)-3,4-dihydroxy-4-methyltetrahydrofuran-2-yl)methoxy)(quinolin-5-yloxy)phosphorylamino)propanoate] | > 100000 | 1.2 |
| COc1nc(N)nc2c1ncn2C1O[C@H](COP(=O)(N[C@@H](C)C(=O)OCC(C)(C)C)Oc2ccc3ncccc3c2)[C@@H](O)[C@@]1(C)O (stereo partly drawn) [Example 33, (2S)-neopentyl 2-((((2R,3R,4R)-5-(2-amino-6-methoxy-9H-purin-9-yl)-3,4-dihydroxy-4-methyltetrahydrofuran-2-yl)methoxy)(quinolin-6-yloxy)phosphorylamino)propanoate] | > 100000 | 0.26 |
| COc1nc(N)nc2c1ncn2C1O[C@H](COP(=O)(N[C@@H](C)C(=O)OC2CCOCC2)Oc2ccc3ncccc3c2)[C@@H](O)[C@@]1(C)O (stereo partly drawn) [Example 34, (2S)-tetrahydro-2H-pyran-4-yl 2-((((2R,3R,4R)-5-(2-amino-6-methoxy-9H-purin-9-yl)-3,4-dihydroxy-4-methyltetrahydrofuran-2-yl)methoxy)(quinolin-6-yloxy)phosphorylamino)propanoate] | > 100000 | 1.1 |
| COc1nc(N)nc2c1ncn2C1O[C@H](COP(=O)(N[C@@H](C)C(=O)OCC(C)(C)C)Oc2ccccc2)[C@@H](O)[C@@]1(C)O (stereo partly drawn) [Example 35, (2S)-neopentyl 2-((((2R,3R,4R)-5-(2-amino-6-methoxy-9H-purin-9-yl)-3,4-dihydroxy-4-methyltetrahydrofuran-2-yl)methoxy)(phenoxy)phosphorylamino)propanoate] | 38000 | 0.049 |
| COc1nc(N)nc2c1ncn2C1O[C@H](COP(=O)(N[C@H](C(=O)OCc2ccc(F)cc2F)C(C)C)Oc2cccc3ccccc23)[C@@H](O)[C@@]1(C)O (some centres unmarked) [Example 37] | 16000 | 0.043 |
| COc1nc(N)nc2c1ncn2C1O[C@H](COP(=O)(N[C@H](C(=O)O[C@@H](C)c2ccc(Br)cc2)C(C)C)Oc2cccc3ccccc23)[C@@H](O)[C@@]1(C)O (stereo partly drawn) [Example 39, (2S)-((S)-1-(4-bromophenyl)ethyl) 2-((((2R,3R,4R)-5-(2-amino-6-methoxy-9H-purin-9-yl)-3,4-dihydroxy-4-methyltetrahydrofuran-2-yl)methoxy)(naphthalen-1-yloxy)phosphorylamino)-3-methylbutanoate] | 900 | 2.2 |
| COc1nc(N)nc2c1ncn2C1O[C@H](COP(=O)(N[C@H](C(=O)O[C@@H](C)c2ccccc2Br)C(C)C)Oc2cccc3ccccc23)[C@@H](O)[C@@]1(C)O (stereo partly drawn) [Example 40, (2S)-((S)-1-(2-bromophenyl)ethyl) 2-((((2R,3R,4R)-5-(2-amino-6-methoxy-9H-purin-9-yl)-3,4-dihydroxy-4-methyltetrahydrofuran-2-yl)methoxy)(naphthalen-1-yloxy)phosphorylamino)-3-methylbutanoate] | 44000 | 2.9 |
| COC(=O)[C@@H](NP(=O)(OC[C@H]1OC(n2cnc3c(OC)nc(N)nc32)[C@](C)(O)[C@@H]1O)Oc1cccc2ccccc12)C(C)C (stereo partly drawn) [Example 41, (2S)-methyl 2-((((2R,3R,4R)-5-(2-amino-6-methoxy-9H-purin-9-yl)-3,4-dihydroxy-4-methyltetrahydrofuran-2-yl)methoxy)(naphthalen-1-yloxy)phosphorylamino)-3-methylbutanoate] | 22000 | 0.38 |
| COc1nc(N)nc2c1ncn2C1O[C@H](COP(=O)(N[C@H](C(=O)OCC2CC2)C(C)C)Oc2cccc3ccccc23)[C@@H](O)[C@@]1(C)O (stereo partly drawn) [Example 43, (2S)-cyclopropylmethyl 2-((((2R,3R,4R)-5-(2-amino-6-methoxy-9H-purin-9-yl)-3,4-dihydroxy-4-methyltetrahydrofuran-2-yl)methoxy) (naphthalen-1-yloxy)phosphorylamino)-3-methylbutanoate] | 6000 | 0.18 |
| COc1nc(N)nc2c1ncn2C1O[C@H](COP(=O)(N[C@H](C(=O)OC2CCC2)C(C)C)Oc2cccc3ccccc23)[C@@H](O)[C@@]1(C)O (stereo partly drawn) [Example 44, (2S)-cyclobutyl 2-((((2R,3R,4R)-5-(2-amino-6-methoxy-9H-purin-9-yl)-3,4-dihydroxy-4-methyltetrahydrofuran-2-yl)methoxy)(naphthalen-1-yloxy)phosphorylamino)-3-methylbutanoate] | 64000 | 0.39 |
| COc1nc(N)nc2c1ncn2C1O[C@H](COP(=O)(N[C@H](C(=O)OC2CCCC2)C(C)C)Oc2cccc3ccccc23)[C@@H](O)[C@@]1(C)O (some centres unmarked) [Example 45] | 56000 | 0.33 |
| COc1nc(N)nc2c1ncn2C1O[C@H](COP(=O)(N[C@H](C(=O)OC2CCCCC2)C(C)C)Oc2cccc3ccccc23)[C@@H](O)[C@@]1(C)O (some centres unmarked) [Example 46] | 24000 | 0.42 |
